Results from PubChem BioAssay (NCI).
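Briefly, cells in 96-well plates were exposed to five compound concentrations for 48 h, and endpoints were estimated by linear interpolation. TGI denotes the concentration required for complete inhibition of growth.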

Tests used:
Assay in all cases: DTP human tumour cell line panel, 48 h
[1] = tested on: M14 melanoma
[2] = tested on: NCI/ADR-RES ovarian
[3] = tested on: MOLT-4 leukemia
[4] = tested on: SNB-19 CNS
[5] = tested on: CAKI-1 renal
[6] = tested on: IGROV1 ovarian
[7] = tested on: NCI-H23 lung
[8] = tested on: PC-3 prostate
[9] = tested on: HCT-116 colon
[10] = tested on: MDA-MB-231 breast
[11] = tested on: 786-0 renal
[12] = tested on: BT-549 breast
[13] = tested on: SK-MEL-5 melanoma
[14] = tested on: MCF7 breast
[15] = tested on: NCI-H460 lung
[16] = tested on: OVCAR-5 ovarian
[17] = tested on: UO-31 renal
[18] = tested on: HT29 colon
[19] = tested on: EKVX NSCLC
[20] = tested on: TK-10 renal
[21] = tested on: SF-539 CNS
[22] = tested on: SNB-75 CNS
[23] = tested on: RXF 393 renal
[24] = tested on: SK-MEL-2 melanoma
[25] = tested on: DU-145 prostate
[26] = tested on: HS 578T breast
[27] = tested on: MDA-N
[28] = tested on: HCC-2998 colon
[29] = tested on: SW-620 colon
[30] = tested on: CCRF-CEM leukemia
[31] = tested on: UACC-62 melanoma
[32] = tested on: OVCAR-4 ovarian
[33] = tested on: COLO 205 colon
[34] = tested on: A498 renal
[35] = tested on: A549 NSCLC
[36] = tested on: T-47D breast
[37] = tested on: SF-268 CNS
[38] = tested on: HCT-15 colon
[39] = tested on: OVCAR-8 ovarian
[40] = tested on: ACHN renal
[41] = tested on: K-562 leukemia
[42] = tested on: SK-MEL-28 melanoma
[43] = tested on: SK-OV-3 ovarian
[44] = tested on: LOX IMVI melanoma
[45] = tested on: SN12C renal
[46] = tested on: NCI-H226 lung
[47] = tested on: UACC-257 melanoma
[48] = tested on: U251 CNS
[49] = tested on: MALME-3M melanoma
[50] = tested on: KM12 colon
[51] = tested on: OVCAR-3 ovarian
[52] = tested on: SF-295 CNS
[53] = tested on: MDA-MB-435
[54] = tested on: HOP-92 NSCLC
[55] = tested on: HL-60(TB) leukemia
[56] = tested on: RPMI-8226 leukemia
[57] = tested on: HOP-62 NSCLC
[58] = tested on: NCI-H522 lung
[59] = tested on: SR leukemia

Measured: TGI

CC(=O)O[C@H]1C(=O)[C@@]2(C)[C@H]([C@H](OC(=O)c3ccccc3)[C@]3(O)C[C@H](OC(=O)[C@H](O)[C@@H](NC(=O)CC(C)(C)C)c4ccccc4)C(C)=C1C3(C)C)C1(OC(C)=O)CO[C@@H]1C[C@@H]2O (stereo partly drawn)
0.00653 µM: [26]
> 5.23 µM: [46]
> 2.93 µM: [16]
0.0418 µM: [28]
0.0833 µM: [25]
> 3.96 µM: [3]
0.00453 µM: [21]
0.0154 µM: [22]
> 5.8 µM: [39]
0.148 µM: [23]
0.0133 µM: [18]
> 6.19 µM: [37]
> 5.78 µM: [38]
0.012 µM: [33]
> 3.34 µM: [9]
not listed: [48] | [49] | [50] | [51] | [52] | [53] | [54] | [55] | [56] | [57] | [58] | [59]
> 10 µM: all other assays above

CCOC(=O)C(/C=N\C(=S)Nc1ccc(OCC)cc1)=C(/O)c1ccccc1
67.8 µM: [54]
88.4 µM: [34]
not listed: [12] | [17] | [20]
> 100 µM: all other assays above
